Test results published in article PMC11211886 (Frontiers in Pharmacology, 2024).
Values joined by “and” are separate entries in the source; they are usually repeats but may differ in a detail not shown here. Identical values can stand only once.

Experiments:
[1] = Single-dose PK in ICR mice (IV/PO)
Procedure: All intravenous and oral dose formulations were analyzed by liquid chromatography coupled with tandem mass spectrometry (LC-MS/MS) to confirm test article concentration and determine formulation stability.
Animals had free access to food, and water was allowed ad libitum. […] The blood samples were collected with sodium heparin as an anticoagulant. The plasma samples were obtained from blood samples by centrifugation and stored at −80°C until analysis.
A total of eighteen mice were divided into intravenous (IV) and oral (PO) administration groups, with nine animals in each group. The mice were fasted overnight with free access to water before dosing. […] After the mice were anesthetized with isoflurane, approximately 100 μL of whole blood was collected through the retro-orbital sinus and transferred to a 1.5 mL tube containing sodium heparin. The gathered blood samples were kept on ice until centrifugation. Plasma samples were harvested by centrifugation at 1,500 g for 10 min at 4°C.
Pharmacokinetic parameters were calculated by a non-compartmental method using Thermo Kinetica® (Version 5.1 SP1, Thermo Electron Corporation, Philadelphia, Pennsylvania, United States). The area under the plasma concentration–time curve from time zero to the time of the last measurable sample (AUC0-t) or the plasma concentration–time curve from time zero to infinity (AUC0-inf) was calculated using the linear trapezoidal method.

[2] = target: T1, MATE1 (Homo sapiens, UniProt Q96FL8); experiment: MATE1 inhibition, tetraethylammonium uptake in transfected HEK293 cells
T1 sequence (Q96FL8 1-570): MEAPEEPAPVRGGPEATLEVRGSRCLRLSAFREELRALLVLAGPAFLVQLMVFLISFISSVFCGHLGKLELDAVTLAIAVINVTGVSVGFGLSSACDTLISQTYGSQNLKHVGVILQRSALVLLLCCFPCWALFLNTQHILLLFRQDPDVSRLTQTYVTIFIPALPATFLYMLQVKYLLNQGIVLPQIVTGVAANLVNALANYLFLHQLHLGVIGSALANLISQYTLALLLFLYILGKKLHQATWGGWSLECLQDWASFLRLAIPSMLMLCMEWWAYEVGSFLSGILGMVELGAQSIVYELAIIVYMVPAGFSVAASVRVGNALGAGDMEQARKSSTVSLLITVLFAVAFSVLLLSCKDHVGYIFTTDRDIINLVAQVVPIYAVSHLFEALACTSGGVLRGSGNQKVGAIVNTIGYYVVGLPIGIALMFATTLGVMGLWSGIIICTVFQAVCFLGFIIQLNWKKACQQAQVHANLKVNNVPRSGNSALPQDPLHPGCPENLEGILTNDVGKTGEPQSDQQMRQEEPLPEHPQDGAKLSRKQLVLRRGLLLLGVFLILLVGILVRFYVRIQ
Procedure: The pre-incubation solutions were removed, and incubation solutions containing the inhibitors and probe substrates (or transport buffer containing an equal volume of vehicle control and probe substrates) were added and incubated at 37°C for 2 min (5 min for OATP1B3). The probe substrate for OAT1 was 4-aminohippuric acid (10 μM), for OAT3 was estrone 3-sulfate (10 μM), for OCT2 was metformin (100 μM), for OATP1B1 was β-estradiol 17-(β-D-glucuronide) (5 μM), for OATP1B3 was β-estradiol 17-(β-D-glucuronide) (10 μM), and for MATE1 and MATE2-K was tetraethylammonium (10 μM). After incubation, cells were washed three times with ice-cold transport buffer (25 mM HEPES, pH 7.4, pH 8.0 for overexpressing MATE1 and MATE2-K HEK293 cells) and lysed in distilled water. The concentrations of probe substrates were determined by LC-MS/MS, and a BCA Kit (Solarbio ®Life Sciences, Beijing, China) was used to determine the protein content in the cell lysate.
where C is the concentration of the drug in the cell lysate (nM), P is the protein concentration of the cell lysate (mg/mL), and T is the incubation time (minute). Uptake ratetest compound is the uptake rate of the substrate in the presence of the test compound. Uptake ratevehicle control is the uptake rate of the substrate in the presence of the vehicle control. Uptake ratepassive is the uptake rate of the substrate in the presence of the positive inhibitor at the top test concentration.

[3] = target: T2, CYP2E1 (Homo sapiens, UniProt P05181); experiment: Reversible CYP inhibition in HLM, CYP2E1 (chlorzoxazone); type: in vitro ADME; details: for enzyme activity remaining: CYP2E1, HLM
T2 construct: tissue Life Technologies (Durham, NC, USA); host or cells: human liver microsomes
Procedure: The markers used to determine the activities of CYP isoforms were phenacetin O-deethylation for CYP1A2 (probe substrate: 50 µM phenacetin), bupropion hydroxylation for CYP2B6 (probe substrate: 70 µM bupropion), paclitaxel 6α-hydroxylation for CYP2C8 (probe substrate: 10 µM paclitaxel), diclofenac 4′-hydroxylation for CYP2C9 (probe substrate: 5 µM diclofenac), S-(+)-mephenytoin 4′-hydroxylation for CYP2C19 (probe substrate: 20 µM S-(+)-mephenytoin), dextromethorphan O-demethylation for CYP2D6 (probe substrate: 6 µM dextromethorphan), chlorzoxazone 6′-hydroxylation for CYP2E1 (probe substrate: 70 µM chlorzoxazone), and testosterone 6β-hydroxylation and midazolam 1′-hydroxylation for CYP3A4/5 (probe substrate: 45 µM testosterone and 5 µM midazolam). […] Alpha-naphthoflavone (0.04 µM), 2-phenyl-2-(1-piperidinyl)propane (5 µM), quercetin (1 µM), sulfaphenazole (0.5 µM), ticlopidine (4 µM), quinidine (0.2 µM), diethyldithiocarbamate (20 µM), and ketoconazole (0.05 µM) were used as positive inhibitors of CYP1A2, 2B6, 2C8, 2C9, 2C19, 2D6, 2E1, and 3A4, respectively. The vehicle control was prepared in the same composition as inhibitor solutions but free of inhibitors. The concentrations of probe substrates were close to Km values that were determined in-house and within the range recommended by the FDA ([Huang et al., 2007]). Reaction mixtures were incubated at 37°C for 5, 20, or 30 min, depending on the probe substrates of CYP isoforms. The reactions were terminated by adding cold acetonitrile containing IS, and the terminated incubation mixtures were centrifuged at 3,000 g for 10 min before LC-MS/MS analysis.

[4] = male, ICR, mouse, in vivo, iv, 2.5 mg/kg
[5] = male, ICR, mouse, in vivo, po, 10 mg/kg

T2 sequence (P05181 whole entry): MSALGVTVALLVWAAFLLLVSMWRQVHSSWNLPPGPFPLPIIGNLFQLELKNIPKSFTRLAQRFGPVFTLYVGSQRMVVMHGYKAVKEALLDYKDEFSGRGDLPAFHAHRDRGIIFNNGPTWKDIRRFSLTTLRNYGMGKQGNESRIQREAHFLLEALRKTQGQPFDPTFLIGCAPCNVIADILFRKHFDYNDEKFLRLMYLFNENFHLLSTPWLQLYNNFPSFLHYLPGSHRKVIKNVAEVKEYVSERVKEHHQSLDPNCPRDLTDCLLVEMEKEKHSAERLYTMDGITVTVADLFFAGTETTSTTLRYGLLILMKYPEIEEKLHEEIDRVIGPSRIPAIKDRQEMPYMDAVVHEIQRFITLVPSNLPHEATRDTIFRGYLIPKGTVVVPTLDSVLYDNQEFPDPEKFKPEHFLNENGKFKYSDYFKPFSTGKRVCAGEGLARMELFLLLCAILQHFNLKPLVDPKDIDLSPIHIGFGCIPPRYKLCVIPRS

## C[C@H](Nc1ncnc(N)c1C#N)c1cc2ncc(Cl)n2nc1-c1ccccc1 [Amdizalisib]
[1]; ICR mouse, fasted, PO 10 mg/kg
  FPO: 101%
[1]; [4]
  AUC(0-inf): 2830 ng·h/mL
  AUC(0-t): 2700 ng·h/mL
  MRT: 2.12 h
  Vd: 1.87 L/kg
  clearance: 14.7 mL/min/kg
  half-life: 2.06 h
[1]; [5]
  AUC(0-inf): 13700 ng·h/mL
  AUC(0-t): 10900 ng·h/mL
  Cmax: 3080 ng/mL
  MRT: 4.91 h
  half-life: 4.16 h
[2]
  IC50: 16.2 µM
  calculated R value (MATE-1): < 1.1
[2]; MATE1, compound 0.3 μM
  Percentage transported: 98.0%
  Uptake rate: 244±23.4 pmol/mg protein/min
[2]; MATE1, compound 1 μM
  Percentage transported: 86.1%
  Uptake rate: 216±1.37 pmol/mg protein/min
[2]; MATE1, compound 3 μM
  Percentage transported: 73.2%
  Uptake rate: 186±12.4 pmol/mg protein/min
[2]; MATE1, compound 10 μM
  Percentage transported: 49.2%
  Uptake rate: 129±1.08 pmol/mg protein/min
[2]; MATE1, compound 30 μM
  Percentage transported: 47.8%
  Uptake rate: 126±22.8 pmol/mg protein/min
[2]; MATE1, compound 100 μM
  Percentage transported: 23.6%
  Uptake rate: 68.4±2.28 pmol/mg protein/min
[2]; human, pH 8
  inhibition at 2 min, 0.3 µM: 2.01%
  inhibition at 2 min, 1 µM: 13.9%
  inhibition at 2 min, 3 µM: 26.8%
  inhibition at 2 min, 10 µM: 50.8%
  inhibition at 2 min, 30 µM: 52.2%
  inhibition at 2 min, 100 µM: 76.4%
[3]; 0.08 μM
  enzyme activity remaining: 99.7% and 97.6%
[3]; 0.4 μM
  enzyme activity remaining: 99.0% and 96.9%
[3]; 2 μM
  enzyme activity remaining: 101% and 95.5%
[3]; 10 μM
  enzyme activity remaining: 105% and 97.6%
[3]; 50 μM
  enzyme activity remaining: 118% and 113%
[3]; HLM, reversible, without pre-incubation
  IC50: > 50 µM
